Results taken from PubChem BioAssay AID1963829 (Molecular Pharmacology Branch, DTP, NCI, 2024).

The molecules below were run on 935938-334-R-J1-PDC complex spheroid viability (assay: Anticancer human tumor 935938-334-R-J1-PDC patient-derived small intestine adenocarcinoma cell line growth inhibition [POLQ]). Settings: second compound 1 µM; first compound 0.316 µM; hits give low values.
Summary of the method: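 Patient-derived tumour cells were co-cultured with HUVEC and mesenchymal stem cells as multicellular spheroids at 37 °C. They were treated with POLQ inhibitors (novobiocin, ART-558, RP6685) alone or combined with other agents. Top concentrations were at or near clinical Cmax (otherwise 10 microM; SN-38 at 1 microM), decreasing in half-log steps.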
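Also: spheroids exposed to drugs for seven days before viability read; 100% = DMSO vehicle control wells.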

With `COc1cc2cc(C(=O)CCC(=O)O)sc2cc1OC` + Cc1cccc(N(C)C(=O)C2C(O)CCN2c2nc(C)cc(C(F)(F)F)c2C#N)c1 as the molecule, how does the viability, T/C read?
Its viability, T/C is 103%.

For `O=C(c1cc(Cc2n[nH]c(=O)c3ccccc23)ccc1F)N1CCN(C(=O)C2CC2)CC1` + COC1C(OC(N)=O)C(O)C(Oc2ccc3c(O)c(NC(=O)c4ccc(O)c(CC=C(C)C)c4)c(=O)oc3c2C)OC1(C)C, which viability, T/C is on record?
The viability, T/C was 102%.

How did the viability, T/C turn out when `O=C(Nc1ccc(O)c(NS(=O)(=O)c2ccc(F)cc2)c1)c1ccc(-c2ccccc2)cc1` + Cc1cccc(N(C)C(=O)C2C(O)CCN2c2nc(C)cc(C(F)(F)F)c2C#N)c1 was run?
The viability, T/C was 100%.

Which viability, T/C does the source give for `COc1cc(C2c3cc4c(cc3C(OC3OC5COC(C)OC5C(O)C3O)C3COC(=O)C23)OCO4)cc(OC)c1O` (configuration not stated) + Cc1cccc(N(C)C(=O)C2C(O)CCN2c2nc(C)cc(C(F)(F)F)c2C#N)c1 here?
Its viability, T/C is 61%.

`CC1COCCN1c1cc(C2(S(C)(=N)=O)CC2)nc(-c2ccnc3[nH]ccc23)n1` (configuration not stated) + COC1C(OC(N)=O)C(O)C(Oc2ccc3c(O)c(NC(=O)c4ccc(O)c(CC=C(C)C)c4)c(=O)oc3c2C)OC1(C)C was tested. Which viability, T/C did it give?
The viability, T/C was 84.8%.

With `COc1cccc2c1C(=O)c1c(O)c3c(c(O)c1C2=O)CC(O)(C(=O)CO)CC3OC1CC(N)C(O)C(C)O1` (configuration not stated) + Cc1cccc(N(C)C(=O)C2C(O)CCN2c2nc(C)cc(C(F)(F)F)c2C#N)c1 as the molecule, how does the viability, T/C read?
The viability, T/C was 31.4%.

Same assay, conditions: second compound 1 µM; first compound 1 µM; hits give low values

How did the viability, T/C turn out when `COc1ccc([C@@H](O)c2cc(-c3ncnc4cc(N5CCOCC5)ccc34)c(F)cc2Cl)nn1` + COC1C(OC(N)=O)C(O)C(Oc2ccc3c(O)c(NC(=O)c4ccc(O)c(CC=C(C)C)c4)c(=O)oc3c2C)OC1(C)C was run?
Its viability, T/C is 85.2%.

`Nc1ccn(C2OC(CO)C(O)C2(F)F)c(=O)n1` (configuration not stated) + Cc1cccc(N(C)C(=O)C2C(O)CCN2c2nc(C)cc(C(F)(F)F)c2C#N)c1 was tested. Which viability, T/C did it give?
The viability, T/C was 23.2%.

For `COc1cc2cc(C(=O)CCC(=O)O)sc2cc1OC` + Cc1cccc(N(C)C(=O)C2C(O)CCN2c2nc(C)cc(C(F)(F)F)c2C#N)c1, which viability, T/C is on record?
Its viability, T/C is 81.1%.

Which viability, T/C does the source give for `O=C(c1cc(Cc2n[nH]c(=O)c3ccccc23)ccc1F)N1CCN(C(=O)C2CC2)CC1` + COC1C(OC(N)=O)C(O)C(Oc2ccc3c(O)c(NC(=O)c4ccc(O)c(CC=C(C)C)c4)c(=O)oc3c2C)OC1(C)C here?
Its viability, T/C is 87.5%.

With `O=C(Nc1ccc(O)c(NS(=O)(=O)c2ccc(F)cc2)c1)c1ccc(-c2ccccc2)cc1` + Cc1cccc(N(C)C(=O)C2C(O)CCN2c2nc(C)cc(C(F)(F)F)c2C#N)c1 as the molecule, how does the viability, T/C read?
The viability, T/C was 92.2%.

`COc1cc(C2c3cc4c(cc3C(OC3OC5COC(C)OC5C(O)C3O)C3COC(=O)C23)OCO4)cc(OC)c1O` (configuration not stated) + Cc1cccc(N(C)C(=O)C2C(O)CCN2c2nc(C)cc(C(F)(F)F)c2C#N)c1 was tested. Which viability, T/C did it give?
Its viability, T/C is 35.9%.

How did the viability, T/C turn out when `CC1COCCN1c1cc(C2(S(C)(=N)=O)CC2)nc(-c2ccnc3[nH]ccc23)n1` (configuration not stated) + COC1C(OC(N)=O)C(O)C(Oc2ccc3c(O)c(NC(=O)c4ccc(O)c(CC=C(C)C)c4)c(=O)oc3c2C)OC1(C)C was run?
Its viability, T/C is 64.8%.

Which viability, T/C does the source give for `COc1cccc2c1C(=O)c1c(O)c3c(c(O)c1C2=O)CC(O)(C(=O)CO)CC3OC1CC(N)C(O)C(C)O1` (configuration not stated) + Cc1cccc(N(C)C(=O)C2C(O)CCN2c2nc(C)cc(C(F)(F)F)c2C#N)c1 here?
Its viability, T/C is 19.3%.

Same assay, conditions: second compound 1 µM; first compound 3.16 µM; hits give low values

For `COc1ccc([C@@H](O)c2cc(-c3ncnc4cc(N5CCOCC5)ccc34)c(F)cc2Cl)nn1` + COC1C(OC(N)=O)C(O)C(Oc2ccc3c(O)c(NC(=O)c4ccc(O)c(CC=C(C)C)c4)c(=O)oc3c2C)OC1(C)C, which viability, T/C is on record?
Its viability, T/C is 51.6%.

Which viability, T/C does the source give for `Nc1ccn(C2OC(CO)C(O)C2(F)F)c(=O)n1` (configuration not stated) + Cc1cccc(N(C)C(=O)C2C(O)CCN2c2nc(C)cc(C(F)(F)F)c2C#N)c1 here?
Its viability, T/C is 22.8%.

For `COc1cc2cc(C(=O)CCC(=O)O)sc2cc1OC` + Cc1cccc(N(C)C(=O)C2C(O)CCN2c2nc(C)cc(C(F)(F)F)c2C#N)c1, which viability, T/C is on record?
The viability, T/C was 74%.

With `O=C(c1cc(Cc2n[nH]c(=O)c3ccccc23)ccc1F)N1CCN(C(=O)C2CC2)CC1` + COC1C(OC(N)=O)C(O)C(Oc2ccc3c(O)c(NC(=O)c4ccc(O)c(CC=C(C)C)c4)c(=O)oc3c2C)OC1(C)C as the molecule, how does the viability, T/C read?
The viability, T/C was 94.5%.

`O=C(Nc1ccc(O)c(NS(=O)(=O)c2ccc(F)cc2)c1)c1ccc(-c2ccccc2)cc1` + Cc1cccc(N(C)C(=O)C2C(O)CCN2c2nc(C)cc(C(F)(F)F)c2C#N)c1 was tested. Which viability, T/C did it give?
The viability, T/C was 72.8%.

For `COc1cc(C2c3cc4c(cc3C(OC3OC5COC(C)OC5C(O)C3O)C3COC(=O)C23)OCO4)cc(OC)c1O` (configuration not stated) + Cc1cccc(N(C)C(=O)C2C(O)CCN2c2nc(C)cc(C(F)(F)F)c2C#N)c1, which viability, T/C is on record?
The viability, T/C was 30.4%.

Which viability, T/C does the source give for `CC1COCCN1c1cc(C2(S(C)(=N)=O)CC2)nc(-c2ccnc3[nH]ccc23)n1` (configuration not stated) + COC1C(OC(N)=O)C(O)C(Oc2ccc3c(O)c(NC(=O)c4ccc(O)c(CC=C(C)C)c4)c(=O)oc3c2C)OC1(C)C here?
Its viability, T/C is 65.8%.

How did the viability, T/C turn out when `COc1cccc2c1C(=O)c1c(O)c3c(c(O)c1C2=O)CC(O)(C(=O)CO)CC3OC1CC(N)C(O)C(C)O1` (configuration not stated) + Cc1cccc(N(C)C(=O)C2C(O)CCN2c2nc(C)cc(C(F)(F)F)c2C#N)c1 was run?
The viability, T/C was 5.12%.

Same assay, conditions: second compound 1 µM; first compound 10 µM; hits give low values

`COc1ccc([C@@H](O)c2cc(-c3ncnc4cc(N5CCOCC5)ccc34)c(F)cc2Cl)nn1` + COC1C(OC(N)=O)C(O)C(Oc2ccc3c(O)c(NC(=O)c4ccc(O)c(CC=C(C)C)c4)c(=O)oc3c2C)OC1(C)C was tested. Which viability, T/C did it give?
The viability, T/C was 33.9%.

`Nc1ccn(C2OC(CO)C(O)C2(F)F)c(=O)n1` (configuration not stated) + Cc1cccc(N(C)C(=O)C2C(O)CCN2c2nc(C)cc(C(F)(F)F)c2C#N)c1 was tested. Which viability, T/C did it give?
Its viability, T/C is 19.9%.

With `COc1cc2cc(C(=O)CCC(=O)O)sc2cc1OC` + Cc1cccc(N(C)C(=O)C2C(O)CCN2c2nc(C)cc(C(F)(F)F)c2C#N)c1 as the molecule, how does the viability, T/C read?
The viability, T/C was 83.4%.

Which viability, T/C does the source give for `O=C(c1cc(Cc2n[nH]c(=O)c3ccccc23)ccc1F)N1CCN(C(=O)C2CC2)CC1` + COC1C(OC(N)=O)C(O)C(Oc2ccc3c(O)c(NC(=O)c4ccc(O)c(CC=C(C)C)c4)c(=O)oc3c2C)OC1(C)C here?
The viability, T/C was 79.4%.

`O=C(Nc1ccc(O)c(NS(=O)(=O)c2ccc(F)cc2)c1)c1ccc(-c2ccccc2)cc1` + Cc1cccc(N(C)C(=O)C2C(O)CCN2c2nc(C)cc(C(F)(F)F)c2C#N)c1 was tested. Which viability, T/C did it give?
The viability, T/C was 56.2%.

`COc1cc(C2c3cc4c(cc3C(OC3OC5COC(C)OC5C(O)C3O)C3COC(=O)C23)OCO4)cc(OC)c1O` (configuration not stated) + Cc1cccc(N(C)C(=O)C2C(O)CCN2c2nc(C)cc(C(F)(F)F)c2C#N)c1 was tested. Which viability, T/C did it give?
Its viability, T/C is 30.2%.

With `CC1COCCN1c1cc(C2(S(C)(=N)=O)CC2)nc(-c2ccnc3[nH]ccc23)n1` (configuration not stated) + COC1C(OC(N)=O)C(O)C(Oc2ccc3c(O)c(NC(=O)c4ccc(O)c(CC=C(C)C)c4)c(=O)oc3c2C)OC1(C)C as the molecule, how does the viability, T/C read?
The viability, T/C was 14.9%.

For `COc1cccc2c1C(=O)c1c(O)c3c(c(O)c1C2=O)CC(O)(C(=O)CO)CC3OC1CC(N)C(O)C(C)O1` (configuration not stated) + Cc1cccc(N(C)C(=O)C2C(O)CCN2c2nc(C)cc(C(F)(F)F)c2C#N)c1, which viability, T/C is on record?
Its viability, T/C is 5.59%.

Same assay, conditions: second compound 3.16 µM; first compound 0.0316 µM; hits give low values

For `COc1ccc([C@@H](O)c2cc(-c3ncnc4cc(N5CCOCC5)ccc34)c(F)cc2Cl)nn1` + COC1C(OC(N)=O)C(O)C(Oc2ccc3c(O)c(NC(=O)c4ccc(O)c(CC=C(C)C)c4)c(=O)oc3c2C)OC1(C)C, which viability, T/C is on record?
The viability, T/C was 115%.

How did the viability, T/C turn out when `Nc1ccn(C2OC(CO)C(O)C2(F)F)c(=O)n1` (configuration not stated) + Cc1cccc(N(C)C(=O)C2C(O)CCN2c2nc(C)cc(C(F)(F)F)c2C#N)c1 was run?
The viability, T/C was 37.3%.

With `COc1cc2cc(C(=O)CCC(=O)O)sc2cc1OC` + Cc1cccc(N(C)C(=O)C2C(O)CCN2c2nc(C)cc(C(F)(F)F)c2C#N)c1 as the molecule, how does the viability, T/C read?
Its viability, T/C is 82.1%.

`O=C(c1cc(Cc2n[nH]c(=O)c3ccccc23)ccc1F)N1CCN(C(=O)C2CC2)CC1` + COC1C(OC(N)=O)C(O)C(Oc2ccc3c(O)c(NC(=O)c4ccc(O)c(CC=C(C)C)c4)c(=O)oc3c2C)OC1(C)C was tested. Which viability, T/C did it give?
The viability, T/C was 119%.

For `O=C(Nc1ccc(O)c(NS(=O)(=O)c2ccc(F)cc2)c1)c1ccc(-c2ccccc2)cc1` + Cc1cccc(N(C)C(=O)C2C(O)CCN2c2nc(C)cc(C(F)(F)F)c2C#N)c1, which viability, T/C is on record?
The viability, T/C was 93.2%.

For `COc1cc(C2c3cc4c(cc3C(OC3OC5COC(C)OC5C(O)C3O)C3COC(=O)C23)OCO4)cc(OC)c1O` (configuration not stated) + Cc1cccc(N(C)C(=O)C2C(O)CCN2c2nc(C)cc(C(F)(F)F)c2C#N)c1, which viability, T/C is on record?
The viability, T/C was 84.2%.

Which viability, T/C does the source give for `CC1COCCN1c1cc(C2(S(C)(=N)=O)CC2)nc(-c2ccnc3[nH]ccc23)n1` (configuration not stated) + COC1C(OC(N)=O)C(O)C(Oc2ccc3c(O)c(NC(=O)c4ccc(O)c(CC=C(C)C)c4)c(=O)oc3c2C)OC1(C)C here?
The viability, T/C was 86.2%.

For `COc1cccc2c1C(=O)c1c(O)c3c(c(O)c1C2=O)CC(O)(C(=O)CO)CC3OC1CC(N)C(O)C(C)O1` (configuration not stated) + Cc1cccc(N(C)C(=O)C2C(O)CCN2c2nc(C)cc(C(F)(F)F)c2C#N)c1, which viability, T/C is on record?
The viability, T/C was 63.8%.

Same assay, conditions: second compound 3.16 µM; first compound 0.1 µM; hits give low values

`COc1ccc([C@@H](O)c2cc(-c3ncnc4cc(N5CCOCC5)ccc34)c(F)cc2Cl)nn1` + COC1C(OC(N)=O)C(O)C(Oc2ccc3c(O)c(NC(=O)c4ccc(O)c(CC=C(C)C)c4)c(=O)oc3c2C)OC1(C)C was tested. Which viability, T/C did it give?
Its viability, T/C is 97.8%.

`Nc1ccn(C2OC(CO)C(O)C2(F)F)c(=O)n1` (configuration not stated) + Cc1cccc(N(C)C(=O)C2C(O)CCN2c2nc(C)cc(C(F)(F)F)c2C#N)c1 was tested. Which viability, T/C did it give?
The viability, T/C was 33.8%.

`COc1cc2cc(C(=O)CCC(=O)O)sc2cc1OC` + Cc1cccc(N(C)C(=O)C2C(O)CCN2c2nc(C)cc(C(F)(F)F)c2C#N)c1 was tested. Which viability, T/C did it give?
The viability, T/C was 95.6%.

How did the viability, T/C turn out when `O=C(c1cc(Cc2n[nH]c(=O)c3ccccc23)ccc1F)N1CCN(C(=O)C2CC2)CC1` + COC1C(OC(N)=O)C(O)C(Oc2ccc3c(O)c(NC(=O)c4ccc(O)c(CC=C(C)C)c4)c(=O)oc3c2C)OC1(C)C was run?
The viability, T/C was 85%.
